{
  "source": "patent US20110039763A1",
  "about": "“TARGETED ANTIMICROBIAL MOIETIES” (C3 JIAN, INC., priority 2009, published 2011)",
  "note": "Entries after “also recorded” stand apart in the source; their conditions may differ.",
  "data": [
    {"system": "microorganisms", "test": "Targeting peptide binding to target microorganisms (Tables 3, 10, 12)", "conditions": "microorganism(s) the targeting peptide binds; binding in aqueous buffers that varied with peptide solubility, preferably 1x PBS", "values": [
      {"substance": "1T-267 (RIKEERKNRSYKFFIWRLFDEKTGFI; Peptide with targeting and/or antimicrobial activity)", "Target(s)": "A. naeslundii; also recorded: F. nucleatum; also recorded: P. gingivalis; also recorded: T. denticola; also recorded: S. mitis; also recorded: S. mutans; also recorded: S. oralis; also recorded: S. sanguinis"},
      {"substance": "1T-288 (RWVGGEPSADIYLSAKDTKT; Peptide with targeting and/or antimicrobial activity)", "Target(s)": "F. nucleatum; also recorded: S. gordonii; also recorded: S. salivarious; also recorded: S. sanguinis"},
      {"substance": "1T-248 (IGGALNSCG; Peptide with targeting and/or antimicrobial activity)", "Target(s)": "S. sanguinis"},
      {"substance": "TT-306 (KILNEAEGKLLKVIEKNGEIDIEEI; Peptide with targeting and/or antimicrobial activity)", "Target(s)": "F. nucleatum"},
      {"substance": "1T-198 (MPVSKKRYMLSSAYATALGICYGQVATDEKESEITAIPDLLDYLSVEEYLL; Peptide with targeting and/or antimicrobial activity)", "Target(s)": "P. gingivalis; also recorded: S. epidermidis; also recorded: S. gordonii; also recorded: S. mitis; also recorded: S. mutans; also recorded: S. oralis; also recorded: S. sanguinis"},
      {"substance": "1T-272 (QLAPIDKQLKAVKKIAFYESESTAAKAVTVA; Peptide with targeting and/or antimicrobial activity)", "Target(s)": "F. nucleatum; also recorded: S. mutans; also recorded: S. oralis; also recorded: S. sanguinis"}
    ]},
    {"system": "microorganisms", "test": "Targeting peptide binding to target microorganisms (Tables 3, 10, 12)", "conditions": "microorganism(s) the targeting peptide binds; binding in aqueous buffers varied with peptide solubility, preferably 1x PBS", "values": [
      {"substance": "PF-487 (MYKAIAVLAMTIMAFFIFVYPFFIVGLILG; Peptide with targeting and/or antimicrobial activity)", "Target(s)": "S. mutans; also recorded: E. coli"},
      {"substance": "PF-568 (TQAVQVKTAQAQQQ; Peptide with targeting and/or antimicrobial activity)", "Target(s)": "S. epidermidis"},
      {"substance": "PF-151 (EEYPARVPLSGEDVTEARRH; Peptide with targeting and/or antimicrobial activity)", "Target(s)": "S. epidermidis and MRSA and E. faecalis and C. jeikeium"},
      {"substance": "PF-436 (KKHVLVGKQEKNG; Peptide with targeting and/or antimicrobial activity)", "Target(s)": "C. jeikeium"},
      {"substance": "PF-689 (SAPSG; Peptide with targeting and/or antimicrobial activity)", "Target(s)": "S. mutans; also recorded: E. coli"},
      {"substance": "PF-781 (PLVVVNHRRAERSRG; Peptide with targeting and/or antimicrobial activity)", "Target(s)": "Mycobacteria spp."},
      {"substance": "PF-388 (ITPLLDEIGKVCIDKISK; Peptide with targeting and/or antimicrobial activity)", "Target(s)": "E. faecalis; also recorded: C. jeikeium; also recorded: C. jejuni"},
      {"substance": "PF-501 (GSTAHKSPIGSTNNQWGMKKTPTD; Peptide with targeting and/or antimicrobial activity)", "Target(s)": "S. mutans"},
      {"substance": "PF-228 (NQLGSQAFAQL; Peptide with targeting and/or antimicrobial activity)", "Target(s)": "S. mutans"},
      {"substance": "PF-365 (LYKQKIQLEEELEKLKDDRQ; Peptide with targeting and/or antimicrobial activity)", "Target(s)": "S. epidermidis; also recorded: B. subtilis; also recorded: B. fragilis; also recorded: P. aeruginosa; also recorded: C. albicans"},
      {"substance": "PF-495 (KGIYKKRTY; Peptide with targeting and/or antimicrobial activity)", "Target(s)": "S. mutans; also recorded: E. coli"},
      {"substance": "PF-C003 (FCSVDHDVITIAADHVKQGAEA; Peptide with targeting and/or antimicrobial activity)", "Target(s)": "A. naeslundii; also recorded: P. gingivalis; also recorded: S. mutans"},
      {"substance": "PF-488 (YPNEQGHHKNNLKNIIIE; Peptide with targeting and/or antimicrobial activity)", "Target(s)": "S. mutans; also recorded: E. coli"},
      {"substance": "PF-146 (GCGKRRIITKSASRDTR; Peptide with targeting and/or antimicrobial activity)", "Target(s)": "S. epidermidis and M. luteus and P. aeruginosa and C. albicans and MRSA and C. jeikeium"},
      {"substance": "PF-206 (KLRSASKKSLQEKSCGIMPEKPAG; Peptide with targeting and/or antimicrobial activity)", "Target(s)": "M. luteus; also recorded: C. albicans; also recorded: C. jeikeium; also recorded: C. jejuni"},
      {"substance": "PF-326 (VIVGNLGAQKEKRNDTPISAKKDIMGDKTVRVRADLHH; Peptide with targeting and/or antimicrobial activity)", "Target(s)": "S. mutans; also recorded: E. coli"},
      {"substance": "PF-161 (RGRALASTATTRPARRRR; Peptide with targeting and/or antimicrobial activity)", "Target(s)": "S. epidermidis; also recorded: M. luteus; also recorded: E. coli; also recorded: C. jejuni"},
      {"substance": "PF-308 (QQYLILDRM; Peptide with targeting and/or antimicrobial activity)", "Target(s)": "C. difficile"},
      {"substance": "PF-256 (EYFKQVYVKNEKIYSFWICKDLSPKEAAKRAEDILVKLK; Peptide with targeting and/or antimicrobial activity)", "Target(s)": "S. epidermidis"},
      {"substance": "PF-797 (WYYFDNNGYM; Peptide with targeting and/or antimicrobial activity)", "Target(s)": "S. mutans"},
      {"substance": "PF-214 (GHLRVCWVFSASLLTPFRSATLI; Peptide with targeting and/or antimicrobial activity)", "Target(s)": "S. mutans; also recorded: S. epidermidis; also recorded: M. luteus; also recorded: E. coli; also recorded: P. aeruginosa; also recorded: A. baumannii"},
      {"substance": "PF-C271 (FFPSYYSIIITYF; Peptide with targeting and/or antimicrobial activity)", "Target(s)": "A. naeslundii; also recorded: F. nucleatum; also recorded: P. gingivalis; also recorded: S. mutans; also recorded: T. denticola"},
      {"substance": "PF-767 (DGKQGEPVALKPTDN; Peptide with targeting and/or antimicrobial activity)", "Target(s)": "S. epidermidis and M. luteus and E. coli and MRSA and S. pneumoniae and E. faecalis and C. jeikeium"},
      {"substance": "PF-778 (MNLILTAHGT; Peptide with targeting and/or antimicrobial activity)", "Target(s)": "Mycobacteria spp."},
      {"substance": "PF-242 (KLFEDPLIKSKAVENFQTTWHEQCLAKELAKNM; Peptide with targeting and/or antimicrobial activity)", "Target(s)": "S. mutans; also recorded: E. coli"},
      {"substance": "PF-295 (NIQVYESECGNYIFKKSDESFLIDIFDKNGTH; Peptide with targeting and/or antimicrobial activity)", "Target(s)": "C. difficile"},
      {"substance": "PF-C034 (HPMPITVRSRKPGPLTAPSEH; Peptide with targeting and/or antimicrobial activity)", "Target(s)": "S. mutans; also recorded: E. coli"},
      {"substance": "PF-240 (RITEVPPDEHSDR; Peptide with targeting and/or antimicrobial activity)", "Target(s)": "S. mutans; also recorded: E. coli"},
      {"substance": "PF-C008 (AQPRRTWLVNFGEVPSPGLTNDGMPDH; Peptide with targeting and/or antimicrobial activity)", "Target(s)": "A. naeslundii"},
      {"substance": "PF-C093 (EKLGTMV; Peptide with targeting and/or antimicrobial activity)", "Target(s)": "A. naeslundii; also recorded: F. nucleatum; also recorded: S. mutans"},
      {"substance": "PF-716 (HGENHHHKSDEKDNDSSEKKD; Peptide with targeting and/or antimicrobial activity)", "Target(s)": "S. mutans"},
      {"substance": "PF-185 (RPAQARQGPGGLIADRHIRA; Peptide with targeting and/or antimicrobial activity)", "Target(s)": "E. coli; also recorded: P. aeruginosa"},
      {"substance": "PF-291 (DVDGAIESEL; Peptide with targeting and/or antimicrobial activity)", "Target(s)": "S. mutans; also recorded: E. coli"},
      {"substance": "PF-166 (SKAVSRKRSI; Peptide with targeting and/or antimicrobial activity)", "Target(s)": "E. coli; also recorded: C. jeikeium"},
      {"substance": "PF-784 (MAMTTVDNIVGLVIAVALMAFLFAALLFPEKF; Peptide with targeting and/or antimicrobial activity)", "Target(s)": "Mycobacteria spp."}
    ]},
    {"system": "microorganisms", "test": "Targeting peptide binding to target microorganisms (Tables 3, 10, 12)", "conditions": "peptide binding in aqueous buffers that varied with peptide solubility; preferably 1x PBS", "values": [
      {"substance": "1T-40 (QRVSLWSEVEHEFR; Peptide with targeting and/or antimicrobial activity)", "Target(s) (microorganism bound by the targeting peptide)": "S. mutans; also recorded: P. aeruginosa"},
      {"substance": "1T-69 (ILSQEADRKKLF; Peptide with targeting and/or antimicrobial activity)", "Target(s) (microorganism bound by the targeting peptide)": "S. mutans; also recorded: P. aeruginosa"},
      {"substance": "1T-84 (FRKKRYGLSILLWLNAFTNLVNSIHAFYMTLF; Peptide with targeting and/or antimicrobial activity)", "Target(s) (microorganism bound by the targeting peptide)": "S. pneumoniae"},
      {"substance": "1T-53 (SDILAEMFEKGELQTLVKDAAAKANA; Peptide with targeting and/or antimicrobial activity)", "Target(s) (microorganism bound by the targeting peptide)": "P. aeruginosa"},
      {"substance": "1T-145 (VEAGKRNISLENIEKISKGLGISISELFKYIEEGEDKIG; Peptide with targeting and/or antimicrobial activity)", "Target(s) (microorganism bound by the targeting peptide)": "S. mitis; also recorded: S. mutans; also recorded: S. oralis"},
      {"substance": "1T-23 (PALVDLSNKEAVWAVLDDHS; Peptide with targeting and/or antimicrobial activity)", "Target(s) (microorganism bound by the targeting peptide)": "S. mutans; also recorded: P. aeruginosa"},
      {"substance": "1T-126 (QGLARPVLRRIPL; Peptide with targeting and/or antimicrobial activity)", "Target(s) (microorganism bound by the targeting peptide)": "S. gordonii; also recorded: S. mitis; also recorded: S. mutans"},
      {"substance": "1T-29 (GSVIKKRRKRMSKKKHRKMLRRTRVQRRKLGK; Peptide with targeting and/or antimicrobial activity)", "Target(s) (microorganism bound by the targeting peptide)": "S. epidermidis; also recorded: C. jeikeium; also recorded: C. xerosis; also recorded: C. striatum; also recorded: P. aeruginosa; also recorded: S. mutans; also recorded: S. aureus"},
      {"substance": "1T-41 (KRGSKIVIAIAVVLIVLAGVWVW; Peptide with targeting and/or antimicrobial activity)", "Target(s) (microorganism bound by the targeting peptide)": "S. mutans; also recorded: S. aureus; also recorded: S. epidermidis; also recorded: C. jeikeium; also recorded: C. striatum; also recorded: P. aeruginosa"}
    ]}
  ]
}
